Experimental data: PubChem BioAssay AID588780 (Sanford-Burnham Center for Chemical Genomics, 2011)
Active and inactive are the calls of the source.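 The calls were made as follows: active = compounds whose fitted half-maximal concentration in the cell-protection dose series is at or below a set limit; inactive = the rest.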

What follows are compounds tested on H9c2 cardiomyocytes, 2-deoxyglucose stress, ATP luminescence, 2 h (assay: protection of cardiomyocytes from 2-deoxyglucose injury, dose response, cell-based, 2-deoxyglucose stress, uHTS hits (AID 588780)).

Row | Structure (SMILES) | IC50
1 | COc1cccc(C(=O)CSc2nnc(-c3cc(OC)c(OC)c(OC)c3)o2)c1 | > 79 µM (inactive)
2 | COc1ccc(OC)c(Nc2nc(N)nc(-c3cc4ccccc4o3)n2)c1 | > 79 µM (inactive)
3 | CCOC(=O)C1CCN(c2cc3c(cc2NC(=O)c2ccccc2)n(C)c(=O)n3C)CC1 | > 79 µM (inactive)
4 | COc1cccc(NC(=O)CN(C)C(=O)Cc2n[nH]c(=O)c3ccccc23)c1 | > 79 µM (inactive)
5 | COc1ccc(OC)c(/C=N/NC(=O)c2cc3c(OC)c(OC)ccc3[nH]2)c1 | > 79 µM (inactive)
6 | O=c1cc(CSc2ccc([N+](=O)[O-])cc2)nc2sccn12 | > 79 µM (inactive)
7 | O=C(NCCc1c[nH]c2ccccc12)C(=O)NCC(c1ccco1)N1CCN(c2ccccc2F)CC1 (stereo unspecified) | > 79 µM (inactive)
8 | COc1cccc(-c2nnc(NC(=O)c3ccc(Cl)s3)o2)c1 | > 79 µM (inactive)
9 | COc1cc2oc3cc(C#Cc4ccc(N)cc4)ccc3c(=O)c2cc1OC | > 79 µM (inactive)
10 | COc1ccc(OC)c(/C=N/Nc2nncn2/N=C/c2cc(OC)ccc2OC)c1 | > 79 µM (inactive)
11 | CCCc1cc(=O)oc2c(CNc3ccc(OCC)cc3)c(O)ccc12 | 17.4 µM
12 | CC(C)(C)c1ccc(OCCCC(=O)NNC(=O)c2ccccc2O)cc1 | > 79 µM (inactive)
13 | O=C(Nc1nnc(-c2ccc3c(c2)CCCC3)o1)c1ccccc1 | 23.3 µM
14 | C=CCOc1ccc(C=Nc2ccc(OC)cc2)c(O)c1 | 23.8 µM
15 | CCOc1cc(NC(=O)C2CC2)c(OCC)cc1NC(=O)c1ccccn1 | > 79 µM (inactive)
16 | Cc1c(C#N)c(N)nc2c3c(sc12)NC(=O)CC3c1ccc(Cl)cc1 (stereo unspecified) | 19.7 µM
17 | O=c1[nH]c(NCc2ccccc2)nc2c1CCCC2 | > 79 µM (inactive)
18 | COc1ccccc1NS(=O)(=O)c1cccc(C(=O)N/N=C/c2c(CO)cnc(C)c2O)c1 | 31.8 µM (inactive)
19 | CCOC(=O)c1ccccc1OCc1cc(/C=N/NC(=O)c2cccnc2)ccc1OC | 10.7 µM
20 | O=C(CCc1nc2ccccc2c(=O)[nH]1)N1CCN(c2ccc(F)cc2)CC1 | > 79 µM (inactive)
21 | N#CCCn1c(SCC(=O)c2c[nH]c3ccccc23)nc2ccccc21 | 49.4 µM (inactive)
22 | S=C(Nc1ccc(N2CCOCC2)cc1)Nc1ccc2nc(-c3ccco3)c(-c3ccco3)nc2c1 | > 79 µM (inactive)
23 | CC(C(=O)NC1CCCC1)N(C(=O)Cn1nnc(-c2ccc(F)cc2)n1)c1ccccc1F (stereo unspecified) | > 79 µM (inactive)
24 | Cc1ccc(C)c(S(=O)(=O)N(C(=O)c2ccncc2)c2ccc(OC(=O)c3ccncc3)cc2)c1 | > 79 µM (inactive)

Row | Structure (SMILES) | IC50
25 | Cc1nc(SCC(=O)N2CCN(c3ccccc3)CC2)c2oc3ccccc3c2n1 | 13.8 µM
26 | C#Cc1cc(N2CCN(C(=O)c3ccoc3)CC2)n2nc(-c3cccc(Cl)c3)cc2n1 | > 79 µM (inactive)
27 | CCN1CCN(c2nc3c(c(=O)[nH]2)CCC3)CC1 | > 79 µM (inactive)
28 | COc1ccc(C(=O)COc2ccccc2C(N)=O)cc1 | > 79 µM (inactive)
29 | CCC(C)Nc1ncnc2c1cnn2Cc1ccc(Cl)cc1 (stereo unspecified) | > 79 µM (inactive)
30 | Cc1nc(OCc2ccccc2)c2ccccc2n1 | 9.43 µM
31 | COC(=O)c1cc2ccc(OC)cc2c2cc(OC)c(OC)cc12 | > 79 µM (inactive)
32 | COc1ccc(-c2oc(=O)c3cc(OC)c(OC)cc3c2C#CCCO)cc1 | > 79 µM (inactive)
33 | Cc1ccc(NC(=O)c2nc[nH]c2C(=O)NCCCCCNC(=O)OC(C)(C)C)cc1 | > 79 µM (inactive)
34 | O=C(NCC(=O)N(Cc1cccs1)C(C(=O)NC1CCCC1)c1ccco1)c1cccs1 (stereo unspecified) | 13.3 µM
35 | O=c1cc(-c2cccnc2)oc2c1ccc1ccccc12 | 12.6 µM
36 | COc1cc(Nc2nc3ccccc3n3nnnc23)cc(OC)c1OC | > 79 µM (inactive)
37 | Cn1c(C(=O)NCc2cccs2)cc2c(=O)n(C)c3ccccc3c21 | > 79 µM (inactive)
38 | CC1CCN(CCCNC(=O)c2n[nH]c(=O)c3ccccc23)CC1 | > 79 µM (inactive)
39 | COc1ccccc1OCC(=O)Nc1cccc(-c2nnc(-c3ccco3)o2)c1 | > 79 µM (inactive)
40 | CCCn1nc(C(=O)OCC(=O)c2c(N)n(C)c(=O)n(C)c2=O)c2ccccc2c1=O | 56.6 µM (inactive)
41 | CCOC(=O)N1CCN(C(=O)CSc2nc3c(cnn3-c3ccc(C)cc3)c(=O)[nH]2)CC1 | > 79 µM (inactive)
42 | CN(C)Cc1ccc(-c2nc3cccc4c3n2CCNC4=O)cc1 | 49.2 µM (inactive)
43 | COc1ccc(N(C(=O)c2cccnc2)S(=O)(=O)c2cccs2)cc1 | > 79 µM (inactive)
44 | CC(OC(=O)Cc1n[nH]c(=O)c2ccccc12)C(=O)Nc1ccc(Cl)cn1 (stereo unspecified) | > 79 µM (inactive)
45 | CCc1cc(C(=O)Nc2nc(-c3ccccn3)cs2)sc1C | > 79 µM (inactive)
46 | N/C(=N\NS(=O)(=O)c1ccccc1)c1ccccn1 | > 79 µM (inactive)
47 | CC(=O)N1CCN(c2ccccc2NC(=O)c2ccc(-c3cccc([N+](=O)[O-])c3)o2)CC1 | 5.88 µM
48 | O=c1[nH]c(CN2CCCC2)nc2sc3c(c12)CCC3 | > 79 µM (inactive)

Row | Structure (SMILES) | IC50
49 | COc1ccc(CNC(=O)c2ccc(Cn3nc(C)c([N+](=O)[O-])c3C)o2)cc1 | > 79 µM (inactive)
50 | O=C(Nc1ccc2c(c1)OCO2)c1cnn2c(C(F)(F)F)cc(-c3ccco3)nc12 | 7.33 µM
51 | O=C(OCC(=O)N1CCc2ccccc21)c1n[nH]c(=O)c2ccccc12 | > 79 µM (inactive)
52 | CC1(C)CC2CC(C)(CN2C(=O)COC(=O)Cn2[nH]c(=O)c3ccccc3c2=O)C1 (stereo unspecified) | > 79 µM (inactive)
53 | O=C(N/N=C/c1ccccn1)c1cc(C2CC2)nc2ccccc12 | > 79 µM (inactive)
54 | CCc1nc2ccccc2c(C(=O)OCc2nc3ccccc3c(=O)[nH]2)c1C | 23.1 µM
55 | CS(=O)(=O)c1ccc(-c2cnc3c(NC=O)cc(-c4ccsc4)cn23)cc1 | > 79 µM (inactive)
56 | O=C(CSc1nc2ccccc2c(=O)[nH]1)N1CCCCC1 | > 79 µM (inactive)
57 | C=CC[C@@H](CC(=O)NCCO)C(=O)NC[C@H](OC(=O)[C@@H](CC=C)Cc1ccc(F)cc1)c1ccccc1 | > 79 µM (inactive)
58 | Cc1cc(NC(=O)COC(=O)Cn2[nH]c(=O)c3ccccc3c2=O)c([N+](=O)[O-])cc1C | > 79 µM (inactive)
59 | CCCNC(=O)c1ccc2c(=O)c(O)c(-c3ccc(C)cc3)[nH]c2c1 | > 79 µM (inactive)
60 | COc1cc(NC(=O)c2cccc3c(-c4cnn(C)c4)coc23)cc(OC)c1OC | > 79 µM (inactive)
61 | O=C(C(=O)N(Cc1ccccc1)Cc1ccccc1)c1c(-c2ccccc2)[nH]c2ccccc12 | > 79 µM (inactive)
62 | COCCOC(=O)N/C=C\c1nc2ccccc2c(=O)[nH]1 | 26.7 µM
63 | O=C(Oc1cccc2c(=O)[nH]ccc12)c1ccccc1 | 9.07 µM
64 | Cc1cc(C)cc(NC(=O)CSc2ccc(-c3ccccn3)nn2)c1 | > 79 µM (inactive)
65 | CC(OC(=O)Cn1[nH]c(=O)c2ccccc2c1=O)C(=O)Nc1ccc(F)cc1Cl (stereo unspecified) | > 79 µM (inactive)
66 | C[C@H](CO)N1C[C@H](C)[C@@H](CN(C)S(=O)(=O)c2cccs2)Oc2ccc(NC(=O)Nc3ccccc3)cc2C1=O | 28.2 µM
67 | Cn1c(NCc2ccco2)nc2c1c(=O)n(Cc1ccc(Cl)cc1)c(=O)n2C | 31.3 µM (inactive)
68 | NNC(=O)c1cc2ccccc2cc1O | > 79 µM (inactive)
69 | O=C1NC(=O)c2c(Br)c(Br)c(Br)c(Br)c21 | > 79 µM (inactive)
70 | CC(OC(=O)CCc1nc2ccccc2c(=O)[nH]1)C(=O)NCc1ccc2c(c1)OCO2 (stereo unspecified) | > 79 µM (inactive)
71 | CC(C)c1ccccc1NC(=O)COC(=O)c1c2c(nc3ccccc13)CCN(Cc1ccccc1)C2 | > 79 µM (inactive)
72 | O=C(CCc1nc2ccccc2c(=O)[nH]1)NCC(=O)Nc1ccc(F)c(F)c1 | > 79 µM (inactive)

Row | Structure (SMILES) | IC50
73 | Nc1ccc2nc(-c3cccs3)[nH]c2c1 | > 79 µM (inactive)
74 | CCC(c1nnnn1Cc1ccco1)N(Cc1cc2cc(C)cc(C)c2[nH]c1=O)CC1CCCO1 (stereo unspecified) | > 79 µM (inactive)
75 | CCOC(=O)c1cc2c(=O)n3cccc(C)c3nc2n(CCCOC)c1=NC(=O)c1cccnc1 | > 79 µM (inactive)
76 | O=C(COC(=O)Cn1[nH]c(=O)c2ccccc2c1=O)Nc1ncc(Cl)cc1Cl | > 79 µM (inactive)
77 | CC(=O)NCCNc1nc2c(-c3ccccc3)nnn2c2ccccc12 | > 79 µM (inactive)
78 | c1ccc(-c2cc(-c3nnc4sc(-c5ccccn5)nn34)[nH]n2)cc1 | > 79 µM (inactive)
79 | Cc1sc2nc(NCCO)[nH]c(=O)c2c1C | > 79 µM (inactive)
80 | COc1cccc(-c2cnc3c(NC(C)=O)cc(-c4cc(OC)c(OC)c(OC)c4)cn23)c1 | > 79 µM (inactive)
81 | COc1cc(/C=N/NC(=O)c2ccccc2O)ccc1OCC(=O)Nc1ccccc1 | > 79 µM (inactive)
82 | CC(C)CC(C(=O)NC1CCCCC1)N(Cc1cccs1)C(=O)c1snc(C(N)=O)c1N (stereo unspecified) | 30.1 µM (inactive)
83 | Cc1cccc(NC(=O)c2nc[nH]c2C(=O)NCCCCNC(=O)c2[nH]cnc2C(=O)Nc2cccc(C)c2)c1 | > 79 µM (inactive)
84 | CC(Oc1ccc(F)cc1)C(=O)Nc1nc(-c2ccccn2)cs1 (stereo unspecified) | 37.5 µM (inactive)
85 | CNc1ccccc(C(=O)/C=C/c2ccccc2OC)c1=O | > 79 µM (inactive)
86 | Cc1ccc(C(c2c(C)n(C)n(-c3ccccc3)c2=O)c2c(C)n(C)n(-c3ccccc3)c2=O)s1 | > 79 µM (inactive)
87 | Cc1ccc(NC(=O)CCc2nc3ccccc3c(=O)[nH]2)cc1S(=O)(=O)N1CCOCC1 | > 79 µM (inactive)
88 | CNC(=O)COC(=O)/C=C/c1cn(-c2ccccc2)nc1-c1ccc(C)o1 | 11.6 µM
89 | COc1cc(NC(=O)c2cc3ccccc3cc2OC)ccc1NC(=O)c1cccs1 | > 79 µM (inactive)
90 | CC(=O)Nc1cccc(-c2cc(NC=O)c3ncc(-c4ccc(C(C)=O)cc4)n3c2)c1 | > 79 µM (inactive)
91 | CCOC(=O)c1c2c3c(cccc3n(C)c1=O)C(=O)c1ccccc1-2 | > 79 µM (inactive)
92 | CCOc1ccc(-n2c(C)c(C(C)=O)c3cc(OC(C)=O)ccc32)cc1 | > 79 µM (inactive)
93 | S=c1[nH]c2ccccc2c2ccccc12 | > 79 µM (inactive)
94 | Cc1ccc(C)c(C(=O)Nc2cc(C)nn2-c2nc(C)cc(C)n2)c1 | > 79 µM (inactive)
95 | CC(=O)NCc1ccc(-c2csc(NC(=O)CCc3nc4ccccc4c(=O)[nH]3)n2)s1 | > 79 µM (inactive)
96 | O=c1cc(COc2ncnc3c(Cl)cc(Cl)cc23)nc2sccn12 | > 79 µM (inactive)
